The subject of experiment [1] is Pseudomonas aeruginosa LPS. Briefly: Endotoxemia in vivo, serum endotoxin levels. More on the design: unit not given here. As to conditions: iv 125 μg peptide preincubated with 2 μg LPS per mouse. On the procedure:
(§1) LPS derived from P. aeruginosa and E. coli 0111:B4 or 055:B5 was purchased from List Biological Laboratories (Campbell, Calif.) and stored at 4° C. until use. A commercially available chromogenic Limulus amoebocyte lysate test (Whittaker, Walkersville, Md.) was used to measure endotoxin levels in all solutions and serum samples. Endotoxin levels in peptide solutions were determined to be less than about 0.1 ng/ml. The capacity of BG22, βpep-3 and BG16 to neutralize E. coli 055:B5 endotoxin in vitro was determined by mixing 0.01 ng of LPS with 5×10^−6M of each peptide and results were compared to that observed for 0.01 ng of LPS alone.
(§2) To study endotoxemia in a mammal, 500 μg of each peptide was added to 8 μg of Pseudomonas aeruginosa LPS in 2.0 ml of pyrogen-free phosphate buffered saline (PBS) ex vivo, and incubated for 30 minutes on a shaker at room temperature. Each mouse was injected via tail vein with 0.5 ml of the mixture (125 μg of BG22, BG16, or βpep-3 and 2 μg of LPS per mouse). Mice were euthanized at 30, 60, 90 and 120 minutes after injection and serum collected just prior to death was analyzed for endotoxin levels and TNF-α concentration.
All TNF-α and endotoxin measurements in duplicate or triplicate in each experiment. In vivo experiments were performed twice to confirm reproducibility. The results obtained were compared using the unpaired Student's t-test.

A further experiment concerns TNF-α. Description: Endotoxemia in vivo, serum TNF-α levels. More on the design: species or system mouse. As to conditions: 90 minutes post-challenge; compared to mice receiving LPS without peptide, p<0.05. As to the method:
(§3) TNF-α concentrations were measured as described by Battafarano et al. (supra). Briefly, the TNF-α sensitive cell line WEHI was used in all assays of either RAW cell supernatant (in vitro) or serum (in vivo animal model). Concentrations were extrapolated from a standard curve based oil dilutions of purified TNF-α (Genzyme, Cambridge, Mass.), and all samples were examined in triplicate. Viability of the WEHI cells was assessed by measuring the extent of cellular crystal violet uptake by spectrophotometry at 590 nm. In this assay, absorbance was inversely correlated with cell death and lysis resulting from exposure of WEHI cells to TNF-α. The amount of TNF-α in each experimental sample was extrapolated from the standard curve.
as §2
All TNF-α and endotoxin measurements in duplicate or triplicate in each experiment. […]

The test system of another experiment is RAW 264.7 cells. Description: LPS-induced secretion of TNF-α in vitro by RAW 264.7 cells. As to conditions: 200 ng/ml E. coli 0111:B4 LPS preincubated with 10^−5 M peptide, 3 hours; compared to BG22, p=0.04. The format is cell-based. On the procedure: […] RAW 264.7 cells were placed in each well of a 24-well culture plate and allowed to adhere. Immediately before LPS stimulation, medium was removed and cells were washed in serum-free Dulbecco's modified Eagle's medium (DMDM). Cells were incubated at 37° C. in a 10% CO2 atmosphere for 3 hours with: 1) DMEM alone, 2) E. coli 0111:B4 LPS alone, or 3) E. coli 0111:B4 LPS preincubated with BG22, βpep-3 or BG16. The concentration of LPS used in all groups was 200 ng/ml. To avoid non-specific inhibition of LPS-induced TNF-α secretion, 10^−5 M of each peptide was used in the experimental wells. At the end of the incubation period, macrophage supernatants were collected and assayed for TNF-α concentration.
as §3, with “The amount of TNF-α in each experimental sample was extrapolated from the standard curve.” left out

A further experiment has as its system E. coli 055:B5 endotoxin. Briefly: Chromogenic Limulus amoebocyte lysate test, neutralization of endotoxin in vitro. The format is biochemical. As to conditions: 0.01 ng of LPS mixed with 5×10^−6M peptide. As to the method:
as §1

Experiment [2] has as its system endotoxin from E. coli 055:B5. Description: Limulus amoebocyte lysate assay (E-TOXATE), endotoxin neutralization. Type of experiment: biochemical. As to conditions: 5.0 × 10^−6 M Peptide; 0.02 U (0.2 pg) endotoxin from E. coli 055:B5; Table 4. In short, it runs like this: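 Peptide preincubated with LPS 5 min at room temperature in 1:2 pyrogen-free saline (pH 6.4), then amoebocyte lysate added (E-TOXATE kit). Neutralization of endotoxin activity scored by Limulus lysate reaction; BG38L served as positive control.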

Another experiment relates to P. aeruginosa. Briefly: Bactericidal activity assay. The format is cell-based, Pseudomonas aeruginosa type 1. As to conditions: 1.2 × 10^−7 M Peptide; 5 × 105 P. aeruginosa. The method, boiled down: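 Log-phase P. aeruginosa type 1 (smooth clinical isolate) was grown in brain heart infusion broth, washed, and diluted 1:10 from about 3×10^8 CFU/ml into 0.08M citrate phosphate buffer at pH 5.6 or pH 7.0. Peptides were tested from about […] to 4.1×10^−9M, with LD50 derived from dose response by linear regression.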

Marks after values point to notes of the source that are not given here.

Take “HIKELQVKWKAQKRFLKMSIIVKLNDGRELSLD [βpep-3]”: the “endotoxemia in vivo, serum endotoxin levels” value in experiment [1] (30 minutes after LPS/Peptide injection) was 11*; in experiment [1] (60 minutes after LPS/Peptide injection), 37*; in experiment [1] (90 minutes after LPS/Peptide injection) it was 63*; in experiment [1] (120 minutes after LPS/Peptide injection), 66*. Further, the “serum TNF-α levels (in words)” value with TNF-α is “decreased serum TNF-α levels”. Besides, in the experiment with RAW 264.7 cells, the “LPS-induced TNF-α secretion (in words)” value is recorded as “significantly greater decrease in TNF-α secretion”. In addition, the “% Neutralization of Endotoxin” value in the experiment with E. coli 055:B5 endotoxin is recorded as 81%. Besides, in experiment [2], the “Endotoxin Neutralization, % neutralization” value is on record as 79.4, n = 10%. For the same sequence, in the experiment with P. aeruginosa, the “Bactericidal Activity, % killing” value was 24.9, n = 3%.

The record behind these values is patent US7030087B2, “Synthetic approach to designed chemical structures” (priority 1996, dated 2006).
